Laboratory results from patent publication US11209411B2, “Methods for analyzing stability of an active pharmaceutical ingredient” (Purdue Research Foundation, priority 2018, dated 2021).

Assays:
[1] = Traditional forced degradation in bulk solution, oxidative (H2O2), nanospray MS; type: physicochemical; details: 45 μg/mL, 0.3% H2O2, 90% methanol-10% H2O
Source text: (§1) Particularly, the degradation of three APIs in Leidenfrost droplets is exemplified, under conditions of constant volume achieved by adding make-up solvent automatically via a syringe pump during the levitation period. The data were compared with the degradation of the corresponding bulk material under similar conditions of solvent and temperature. In both droplet and bulk, degradation products are monitored by mass spectrometry and the ratio of products to reactants was used to infer the extent of reaction (Table 1).
(§2) Traditional forced degradation was performed by preparing a stock stress solution of hydrochloric acid or hydrogen peroxide, and a stock solution of the compound of interest (the API). Then the solutions were mixed and allowed to react at a set temperature for a set period of time (FIG. 1A). The composition of the final reaction mixture was analyzed by nanospray MS and the data for the bulk phase experiments are given in Table 1. Likewise, the Leidenfrost reaction mixture was made by the same method, then instead of letting the mixed solution age at a set temperature, it was dropped into a ceramic well which was placed on hot plate held at a temperature of 540° C. to form a much cooler Leidenfrost droplet (FIG. 1B). […] Here, both bulk and Leidenfrost products are analyzed by using nanospray MS.

[2] = Accelerated forced degradation in Leidenfrost droplets, oxidative (H2O2), nanospray MS; type: physicochemical; details: 0.3% H2O2, 90% methanol-10% H2O
Source text: as §1, §2

[3] = Accelerated forced degradation in Leidenfrost droplets, acid (HCl), nanospray MS; type: physicochemical; details: 0.5M HCl, 90% propanol-10% H2O, without make-up solvent
Protocol: The data were compared with the degradation of the corresponding bulk material under similar conditions of solvent and temperature. In both droplet and bulk, degradation products are monitored by mass spectrometry and the ratio of products to reactants was used to infer the extent of reaction (Table 1).
as §2

[4] = Traditional forced degradation in bulk solution, acid (HCl), nanospray MS; details: 450 μg/mL
Source text: as §1, §2

Row | Set Ratio (products to reactants, extent of degradation) ([1]; 40° C., reached after 1.5 h in bulk, 180 s in Leidenfrost droplet) [%] | Bulk Time ([1]; bulk 40° C., time to reach Set Ratio 3%) [h^] | Leidenfrost Time ([2]; 45 μg/mL, Leidenfrost droplet 40° C., constant volume, time to reach Set Ratio 3%) [s] | Accel. Factor ([2]; Leidenfrost droplet vs bulk, 40° C.) | Leidenfrost Time ([3]; 450 μg/mL, Leidenfrost droplet 80° C., time to reach Set Ratio 2.5%) [s] | Accel. Factor ([3]; Leidenfrost droplet vs bulk, 80° C.) | Bulk Time ([4]; 0.5M HCl, 90% propanol-10% H2O, bulk 80° C., time to reach Set Ratio 2.5%) [h] | Set Ratio (products to reactants, extent of degradation) ([4]; 3 h) [%^] | SMILES
1 | 3 | 1.5 | 180 | ~20 | – | – | – | – | CN1CCN(CCCN2c3ccccc3Sc3ccc(C(F)(F)F)cc32)CC1 [Trifluoperazine (TFP), Trifluoperazine]
2 | – | – | – | – | 40 | ~270 | 3 | 2.5 | NS(=O)(=O)c1cc2c(cc1Cl)NCNS2(=O)=O [Hydrochlorothiazide (HCTZ), Hydrochlorothiazide]
